This passage reports IC50 and Papp A→B results from US20240335431A1, “1-H-PYRROLO[2,3-c]PYRIDINE COMPOUNDS” (Acerta Pharma B.V., priority 2023, published 2024).

In one data set the test system is MOLM-13 cells. The experiment in a line: Proliferation assay, MOLM-13 (CellTiter-Glo, 7 days). It counts as cell-based, human. Put shortly: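 Cells were seeded at line-specific low densities for linear growth, exposed to 3.16-fold serial compound dilutions at 0.1% DMSO, and incubated 7 days at 37 °C, 5% CO2. Viability was read by CellTiter-Glo 2.0 luminescence; IC50 came from one-site fits of % inhibition, normalized between DMSO-treated cells (100%) and a day-0 plate (0%).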

Data set [1] can be described thus: Caco-2 cell monolayers intrinsic permeation assay in the presence of efflux inhibitors. It counts as in vitro ADME. Conditions: Caco-2, with efflux inhibitors. The gist of the method:
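Caco-2 monolayers grown 14–18 days on Transwells; compound dosed apically in HBSS with efflux inhibitors (Zosuquidar, Benzbromarone, KO-143), inhibitors also basolateral, 37 °C with shaking. Sampled at 0, 45 and 120 min, analysed by LC/MS/MS; apical-to-basolateral Papp (cm/s) calculated.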

pIC50: −log10 of the molar value. Where two headings read alike, the source gives them in different places.

The pIC50 is the IC50 on a negative log10 scale, so that one unit is a factor of ten. The low end stands for a high IC50, the high end for a low IC50. One may read the Papp A→B as the apparent permeability from the apical to the basolateral side of a cell layer. Take `CCN(C(=O)c1cc(F)ccc1-n1c(C)c(C(=O)[C@@H]2CCN(C(=O)[C@@H]3CC[C@H](C)N3)[C@@H](C)C2)c2ccncc21)C(C)C` (stereo in doubt) [Example 63, N-Ethyl-5-fluoro-N-isopropyl-2-(2-methyl-3-((2S,4RS)-2-methyl-1-((2S,5S)-5-methylpyrrolidine-2-carbonyl)piperidine-4-carbonyl)-1H-pyrrolo[2,3-c]pyridine-1-yl)benzamide]: the pIC50 in the data set with MOLM-13 cells (Homo sapiens, MOLM-13, 168 h) was 7.33. The apical-to-basolateral permeability (Papp A→B) in data set [1] worked out at 1.5 ×10⁻⁶ cm/s.
In the same order, the values of `C[C@@H]1CCC[C@H](C)N1C(=O)c1cc(F)ccc1-n1cc(C(=O)C2CCN(C(=O)[C@H]3N[C@@H]4CC[C@H]3C4)CC2)c2ccncc21` [Example 33, (1-((1R,3S,4S)-2-Azabicyclo[2.2.1]heptane-3-carbonyl)piperidin-4-yl)(1-(2-((2R,6S)-2,6-dimethylpiperidine-1-carbonyl)-4-fluorophenyl)-1H-pyrrolo[2,3-c]pyridin-3-yl)methanone] are 6.95 and 0.5 ×10⁻⁶ cm/s.
Molecule `CC(C)N(C(=O)c1cc(F)ccc1-n1cc(C(=O)C2CCN(C(=O)[C@H]3NC[C@@H]4CC[C@@H]43)CC2)c2ccncc21)C(C)C` (relative stereo) [Example 25, rel-2-(3-(1-((1R,2R,5S)-3-Azabicyclo[3.2.0]heptane-2-carbonyl)piperidine-4-carbonyl)-1H-pyrrolo[2,3-c]pyridin-1-yl)-5-fluoro-N,N-diisopropylbenzamide] showed a pIC50 in the data set on MOLM-13 cells (Homo sapiens, MOLM-13, 168 h) of 7.30. Also, in data set [1], the apparent permeability from apical to basolateral (Papp A→B) stood at 3 ×10⁻⁶ cm/s.
In the same order, the values of `C[C@@H]1COC[C@@H](C)N1C(=O)c1cc(F)ccc1-n1cc(C(=O)C2CCN(C(=O)[C@H]3N[C@@H]4CC[C@H]3C4)CC2)c2ccncc21` [Example 34, (1-((1R,3S,4S)-2-Azabicyclo[2.2.1]heptane-3-carbonyl)piperidin-4-yl)(1-(2-((3R,5R)-3,5-dimethylmorpholine-4-carbonyl)-4-fluorophenyl)-1H-pyrrolo[2,3-c]pyridin-3-yl)methanone] are 7.21 and 0.2 ×10⁻⁶ cm/s.
In the data set with MOLM-13 cells, `Cc1c(C(=O)[C@@H]2CCN(C(=O)[C@H]3NC[C@@H]4C[C@@H]43)[C@@H](C)C2)c2ccncc2n1-c1ccc(F)cc1C(=O)N(CC(F)(F)F)C(C)C` (single isomer, unassigned) [Example 53-3, 2-(3-((2R*,4S*)-1-((1S,2S,5R)-3-Azabicyclo[3.1.0]hexane-2-carbonyl)-2-methylpiperidine-4-carbonyl)-2-methyl-1H-pyrrolo[2,3-c]pyridin-1-yl)-5-fluoro-N-isopropyl-N-(2,2,2-trifluoroethyl)benzamide] had a negative logarithm of the IC50 (pIC50) of 7.82. Also, in data set [1], the Papp A→B was found to be 3.6 ×10⁻⁶ cm/s.
`CC(C)c1ncncc1-c1cc(F)ccc1-n1cc(C(=O)C2CCN(C(=O)[C@H]3N[C@@H]4CC[C@H]3C4)CC2)c2ccncc21` [Example 37, (1-((1R,3S,4S)-2-Azabicyclo[2.2.1]heptane-3-carbonyl)piperidin-4-yl)(1-(4-fluoro-2-(4-isopropylpyrimidin-5-yl)phenyl)-1H-pyrrolo[2,3-c]pyridin-3-yl)methanone] showed a pIC50 with MOLM-13 cells (Homo sapiens, MOLM-13, 168 h) of 7.17. For the same molecule, the apical-to-basolateral permeability (Papp A→B) in data set [1] amounted to 1 ×10⁻⁶ cm/s.
In turn, `CCN(C(=O)c1cc(F)ccc1-n1c(C)c(C(=O)C2CCN(C(=O)[C@@H]3CCC4(CC4)N3)CC2)c2ccncc21)C(C)C` (single isomer, unassigned) [Example 49-2] gave a pIC50 in the data set on MOLM-13 cells of 7.10. In addition, the apparent permeability from apical to basolateral (Papp A→B) in data set [1] amounted to 6.3 ×10⁻⁶ cm/s.
In the data set with MOLM-13 cells (Homo sapiens, MOLM-13, 168 h), `CC(C)N(C(=O)c1cc(F)ccc1-n1cc(C(=O)C2CCN(C(=O)[C@H]3N[C@H]4C[C@@H]3[C@@H](F)C4)CC2)c2ccncc21)C(C)C` [Example 22, 5-Fluoro-2-(3-(1-((1S,3S,4S,5S)-5-fluoro-2-azabicyclo[2.2.1]heptane-3-carbonyl)piperidine-4-carbonyl)-1H-pyrrolo[2,3-c]pyridin-1-yl)-N,N-diisopropylbenzamide] showed a pIC50 of 7.52. Further, the Papp A→B in data set [1] is 3 ×10⁻⁶ cm/s.
As to `CC(C)N(C(=O)c1cc(F)ccc1-n1cc(C(=O)C2CN(C(=O)[C@H]3NC4CCC3CC4)C2)c2ccncc21)C(C)C` [Example 6, (S)-2-(3-(1-(2-Azabicyclo[2.2.2]octane-3-carbonyl)azetidine-3-carbonyl)-1H-pyrrolo[2,3-c]pyridin-1-yl)-5-fluoro-N,N-diisopropylbenzamide], in the data set on MOLM-13 cells (Homo sapiens, MOLM-13, 168 h), the pIC50 is 7.14. Further, the Papp A→B in data set [1] is less than 0.5 ×10⁻⁶ cm/s.
In the same order, the values of `CC(C)N(C(=O)c1cc(F)ccc1-n1cc(C(=O)[C@H]2CCN(C[C@H]3CC[C@H](NS(C)(=O)=O)CC3)C2)c2ccncc21)C(C)C` [Example 1, 5-Fluoro-N,N-diisopropyl-2-(3-((S)-1-(((1r,4S)-4-(methylsulfonamido)-cyclohexyl)methyl)pyrrolidine-3-carbonyl)-1H-pyrrolo[2,3-c]pyridin-1-yl)benzamide] are 6.83 and 2.7 ×10⁻⁶ cm/s.
On to `Cc1c(C(=O)C2CCN(C(=O)[C@@H]3CCC(C)(C)N3)CC2)c2ccncc2n1-c1ccc(F)cc1C(=O)N(C(C)C)C(C)C` (single isomer, unassigned) [Example 56-1], for which the pIC50 in the data set with MOLM-13 cells was 5.71. Further, the Papp A→B in data set [1] was found to be 2.8 ×10⁻⁶ cm/s.
In turn, `CC(C)c1ncccc1-c1cc(F)ccc1-n1cc(C(=O)C2CN(C(=O)[C@H]3N[C@@H]4CC[C@H]3C4)C2)c2ccncc21` [Example 10, (1-((1R,3S,4S)-2-Azabicyclo[2.2.1]heptane-3-carbonyl)azetidin-3-yl)(1-(4-fluoro-2-(2-isopropylpyridin-3-yl)phenyl)-1H-pyrrolo[2,3-c]pyridin-3-yl)methanone] had a pIC50 in the data set on MOLM-13 cells (Homo sapiens, MOLM-13, 168 h) of 7.64. For the same molecule, in data set [1], the Papp A→B was 2.6 ×10⁻⁶ cm/s.
Turning to `CCN(C(=O)c1cc(F)ccc1-n1c(C)c(C(=O)C2CCN(C(=O)[C@@H]3CCC(C)(C)N3)CC2)c2ccncc21)C(C)C` (single isomer, unassigned) [Example 50-2], in the data set on MOLM-13 cells, the pIC50 is 7.36. Also, the Papp A→B in data set [1] turned out to be 1.2 ×10⁻⁶ cm/s.
As for `Cc1c(C(=O)[C@@H]2CCN(C(=O)[C@@H]3CC[C@H](C)N3)[C@@H](C)C2)c2ccncc2n1-c1ccc(F)cc1C(=O)N(C(C)C)C(C)C` (stereo in doubt) [Example 62, 5-Fluoro-N,N-diisopropyl-2-(2-methyl-3-((2S,4RS)-2-methyl-1-((2S,5S)-5-methylpyrrolidine-2-carbonyl)piperidine-4-carbonyl)-1H-pyrrolo[2,3-c]pyridin-1-yl)benzamide], the pIC50 with MOLM-13 cells (Homo sapiens, MOLM-13, 168 h) was 7.28. Besides, the Papp A→B in data set [1] was found to be 4.9 ×10⁻⁶ cm/s.
For the molecule `Cc1c(C(=O)C2CCN(C(=O)[C@H]3NC[C@@H]4C[C@@H]43)CC2)c2ccncc2n1-c1ccc(F)cc1C(=O)N(C(C)C)C(C)C` (single isomer, unassigned) [Example 55-1], the pIC50 in the data set on MOLM-13 cells is 5.90. In addition, the Papp A→B in data set [1] is 3.7 ×10⁻⁶ cm/s.
In the data set on MOLM-13 cells (Homo sapiens, MOLM-13, 168 h), `CC(C)N(C(=O)c1cc(F)ccc1-n1cc(C(=O)C2CN(C(=O)[C@H]3N[C@@H]4CC[C@H]3C4)C2)c2ccncc21)C(C)C` [Example 5, 2-(3-(1-((1R,3S,4S)-2-Azabicyclo[2.2.1]heptane-3-carbonyl)azetidine-3-carbonyl)-1H-pyrrolo[2,3-c]pyridin-1-yl)-5-fluoro-N,N-diisopropylbenzamide] gave a pIC50 of 7.13. Besides, the Papp A→B in data set [1] was determined as 1.2 ×10⁻⁶ cm/s.
The like results for `CC(C)N(C(=O)c1cc(F)ccc1-n1cc(C(=O)C2CCN(C(=O)[C@H]3NC4CCC3CC4)CC2)c2ccncc21)C(C)C` [Example 20, (S)-2-(3-(1-(2-Azabicyclo[2.2.2]octane-3-carbonyl)piperidine-4-carbonyl)-1H-pyrrolo[2,3-c]pyridin-1-yl)-5-fluoro-N,N-diisopropylbenzamide] were, in that order, 7.40 and 0.8 ×10⁻⁶ cm/s.
Take `CCN(C(=O)c1cc(F)ccc1-n1c(C)c(C(=O)C2CCN(C(=O)[C@H]3NC[C@@H]4C[C@@H]43)CC2)c2ccncc21)C(C)C` [Example 47, 2-(3-(1-((1S,2S,5R)-3-Azabicyclo[3.1.0]hexane-2-carbonyl)piperidine-4-carbonyl)-2-methyl-1H-pyrrolo[2,3-c]pyridin-1-yl)-N-ethyl-5-fluoro-N-isopropylbenzamide]: in the data set on MOLM-13 cells, the pIC50 was 7.38. Also, the Papp A→B in data set [1] was 1.9 ×10⁻⁶ cm/s.
Regarding `CC(C)c1cnccc1-c1cc(F)ccc1-n1cc(C(=O)C2CN(C(=O)[C@H]3N[C@@H]4CC[C@H]3C4)C2)c2ccncc21.O=CO` [Example 11, (1-((1R,3S,4S)-2-Azabicyclo[2.2.1]heptane-3-carbonyl)azetidin-3-yl)(1-(4-fluoro-2-(3-isopropylpyridin-4-yl)phenyl)-1H-pyrrolo[2,3-c]pyridin-3-yl)methanone 1·formic acid], the pIC50 in the data set on MOLM-13 cells (Homo sapiens, MOLM-13, 168 h) is 7.30. Further, in data set [1], the Papp A→B turned out to be 0.7 ×10⁻⁶ cm/s.
The like results for `CC(C)N(C(=O)c1cc(F)ccc1-n1cc(C(=O)C2CCN(C(=O)[C@@H]3CCC(C)(C)N3)CC2)c2ccncc21)C(C)C` [Example 27, (S)-2-(3-(1-(5,5-Dimethylpyrrolidine-2-carbonyl)piperidine-4-carbonyl)-1H-pyrrolo[2,3-c]pyridin-1-yl)-5-fluoro-N,N-diisopropylbenzamide] were, in that order, 7.42 and 1.9 ×10⁻⁶ cm/s.
In the same order, the values of `CCN(C(=O)c1cc(F)ccc1-n1c(C)c(C(=O)[C@@H]2CCN(C(=O)[C@@H]3CC[C@@H](C)N3)[C@@H](C)C2)c2ccncc21)C(C)C` (stereo in doubt) [Example 65, N-Ethyl-5-fluoro-N-isopropyl-2-(2-methyl-3-((2S,4RS)-2-methyl-1-((2S,5R)-5-methylpyrrolidine-2-carbonyl)piperidine-4-carbonyl)-1H-pyrrolo[2,3-c]pyridin-1-yl)benzamide] are 7.25 and 1.7 ×10⁻⁶ cm/s.
